Source: patent publication US9334263B2, “Compositions useful for treating disorders related to kit” (BLUEPRINT MEDICINES CORPORATION, priority 2013, dated 2016)

Columns and labels:
[1] = target: T1, Kit D816V (HMC1.2 cells, Kit V560G and D816V) (Homo sapiens, UniProt P10721, D816V/V560G); assay: HMC1.2 autophosphorylation assay (AlphaLISA, phospho-Y719 c-Kit); type: cell-based; conditions: Kit autophosphorylation at tyrosine 719, 90 minutes, read-out: Cellular Activity
T1 construct: endogenous in cells; host or cells: HMC1.2 cells
T1 sequence (P10721 26-976 V560G/D816V): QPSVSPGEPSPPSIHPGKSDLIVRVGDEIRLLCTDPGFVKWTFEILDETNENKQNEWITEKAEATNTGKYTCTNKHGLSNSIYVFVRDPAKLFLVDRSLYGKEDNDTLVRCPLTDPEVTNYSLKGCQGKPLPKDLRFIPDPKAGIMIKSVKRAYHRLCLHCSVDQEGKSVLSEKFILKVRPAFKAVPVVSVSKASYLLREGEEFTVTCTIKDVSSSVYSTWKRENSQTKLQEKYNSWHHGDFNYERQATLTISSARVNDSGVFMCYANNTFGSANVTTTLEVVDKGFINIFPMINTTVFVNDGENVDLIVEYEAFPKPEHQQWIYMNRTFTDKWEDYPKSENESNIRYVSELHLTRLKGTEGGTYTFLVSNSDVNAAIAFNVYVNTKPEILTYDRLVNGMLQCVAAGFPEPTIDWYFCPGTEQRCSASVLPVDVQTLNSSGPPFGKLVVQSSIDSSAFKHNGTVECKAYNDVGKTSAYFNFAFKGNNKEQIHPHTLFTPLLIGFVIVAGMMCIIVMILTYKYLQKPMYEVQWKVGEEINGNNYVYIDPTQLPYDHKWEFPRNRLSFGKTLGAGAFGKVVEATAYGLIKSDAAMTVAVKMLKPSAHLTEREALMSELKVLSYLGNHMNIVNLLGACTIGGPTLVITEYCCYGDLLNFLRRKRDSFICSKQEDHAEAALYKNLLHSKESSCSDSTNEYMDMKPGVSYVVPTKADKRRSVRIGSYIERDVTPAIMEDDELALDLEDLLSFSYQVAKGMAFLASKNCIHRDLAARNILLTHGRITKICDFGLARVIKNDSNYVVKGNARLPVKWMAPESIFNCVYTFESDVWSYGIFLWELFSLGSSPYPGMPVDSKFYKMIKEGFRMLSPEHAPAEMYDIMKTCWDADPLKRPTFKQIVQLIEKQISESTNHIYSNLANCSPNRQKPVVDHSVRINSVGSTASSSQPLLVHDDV
Method: HMC1.2 Autophosphorylation Assay:
10,000 HMC1.2 cells were incubated in 22 ul culture media (phenol-red free IMDM, no serum) in each well of a 384-well plate and serum starved overnight in a tissue culture incubator (5% CO2, 37° C.). A 10-point dose concentration series of compound (25 uM-95.4 pM) were then added to the cells in a volume of 3.1 ul to each well (0.25% DMSO final concentration). After 90 minutes, 6 ul of 5× AlphaLISA Lysis Buffer (Perkin Elmer) supplemented with a protease and phosphatase inhibitor cocktail (Cell Signaling Technologies) was added to each well and shaken at 450 rpm for 15 minutes at 4° C. 10 ul of phospho-Y719 c-Kit and total c-Kit antibodies (15 nM final concentration, Cell Signaling Technologies) and 50 ug/ml AlphaLISA rabbit acceptor beads (Perkin Elmer) were added to each well and shaken at 300 rpm at room temperature for 2 hours. 10 ul of 100 ug/ml streptavidin donor beads (Perkin Elmer) were added to each well, blocked from light with aluminum adhesive and shaken at 300 rpm at room temperature for 2 hours. Fluorescence signal was obtained on Envision (Perkin Elmer) by AlphaScreen 384 well HTS protocol.
This cell line contains Kit mutated at positions V560G and D816V resulting in constitutive activation of the kinase. The following compounds were tested in an assay to measure direct inhibition of Kit D816V kinase activity by assaying Kit autophosphorylation at tyrosine 719 on the Kit protein.

[2] = target: T2, D816V Kit (Homo sapiens, UniProt P10721, D816V); assay: Kit D816V assay at Km (Caliper electrophoretic mobility shift); type: biochemical; conditions: 15 uM ATP, 25 C, 90 minutes
T2 construct: purchased Carna Bioscience 08-156
T2 sequence (P10721 26-976 D816V): as the sequence (P10721 26-976 V560G/D816V) above, with G535V counted along it
Method: In order to assess the activity of chemical compounds against the relevant kinase of interest, the Caliper LifeSciences electrophoretic mobility shift technology platform is used. Fluorescently labeled substrate peptide is incubated in the presence of kinase and ATP so that a […] proportion of the peptide is phosphorylated. At the end of the reaction, the mix of phosphorylated (product) and non-phosphorylated (substrate) peptides are passed through the microfluidic system of the Caliper EZ Reader 2, under an applied potential difference. The presence of the phosphate group on the product peptide provides a difference in mass and charge between those of the substrate peptide, resulting in a separation of the substrate and product pools in the sample. As the pools pass a LEDS within the instrument, these pools are detected and resolved as separate peaks. The ratio between these peaks therefore reflects the activity of the chemical matter at that concentration in that well, under those conditions.
The reaction was stopped by the addition of 70 ul of Stop buffer (100 mM HEPES pH 7.5, 0.015% Brij 35, 35 mM EDTA and 0.2% of Coating Reagent 3 (Caliper Lifesciences)). The plate was then read on a Caliper EZReader 2 (protocol settings: −1.9 psi, upstream voltage −700, downstream voltage −3000, post sample sip 35 s).

| SMILES | IC50 [1] | IC50 [2] |
| --- | --- | --- |
| CC1(Cn2cc(Nc3ncnc(N4CCN(c5ncc(Cc6ccccc6)cn5)CC4)n3)cn2)COC1 [Compound 87] | 0.01 to 0.1 µM | 0.00101 to 0.01 µM |
| Cn1cc(Nc2ncnc(N3CCN(c4ncc([C@@](C)(N)c5ccc(F)cc5)cn4)CC3)n2)cn1 [Compound 36] | < 0.01 µM | < 0.001 µM |
| O=C1CCc2ccc(Nc3ncnc(N4CCN(c5ncc(Cc6ccccc6)cn5)C(CCO)C4)n3)cc2N1 (centres unmarked) [Compound 213] | 0.01 to 0.1 µM | 0.00101 to 0.01 µM |
| C[C@@H]1CN(c2ncnc(Nc3cnn(C[C@@H]4CNCCO4)c3)n2)CCN1c1ncc(Cc2ccccc2)cn1 [Compound 183] | 0.01 to 0.1 µM | 0.00101 to 0.01 µM |
| c1ccc(Cc2cnc(N3CCN(c4ncnc(Nc5ccc(OC6CNC6)cc5)n4)CC3)nc2)cc1 [Compound 77] | 0.01 to 0.1 µM | 0.00101 to 0.01 µM |
| Cc1c(Nc2ncnc(N3CCN(c4ncc([C@](C)(O)c5ccc(F)cc5)cn4)CC3)n2)cnn1C[C@@H]1CNCCO1 [Compound 277] | 0.01 to 0.1 µM | < 0.001 µM |
| Fc1cccc(Sc2cnc(N3CCN(c4ncnc(Nc5cnn(C[C@@H]6CNCCO6)c5)n4)CC3)nc2)c1 [Compound 257] | 0.1 to 1 µM | 0.00101 to 0.01 µM |
| CC(C)(O)Cn1cc(Nc2ncnc(N3CCN(c4ncc(C(C)(C)c5ccc(F)cc5)cn4)CC3)n2)cn1 [Compound 201] | 0.01 to 0.1 µM | < 0.001 µM |
| c1ccc(Nc2cnc(N3CCN(c4ncnc(Nc5cnn(C[C@@H]6CNCCO6)c5)n4)CC3)nc2)cc1 [Compound 135] | 0.01 to 0.1 µM | 0.00101 to 0.01 µM |
| CN(C)S(=O)(=O)Cc1ccc(Nc2ncnc(N3CCN(c4ncc(Cc5ccccc5)cn4)CC3)n2)cc1 [Compound 252] | 0.01 to 0.1 µM | 0.00101 to 0.01 µM |
| C[C@@H](O)CN1CCc2ccc(Nc3ncnc(N4CCN(c5ncc(Cc6ccccc6)cn5)CC4)n3)cc2C1 [Compound 220] | 0.01 to 0.1 µM | < 0.001 µM |
| Clc1ncc(N2CCN(c3ncnc(Nc4cnn(CC5CNCCO5)c4)n3)CC2)nn1 (centres unmarked) [Compound 18] | > 10 µM | > 0.1 µM |
| COc1ccccc1Cc1cnc(N2CCN(c3ncnc(Nc4ccc5c(c4)CNCC5)n3)CC2)nc1 [Compound 113] | 0.1 to 1 µM | 0.00101 to 0.01 µM |
| Cc1cc(N2CCNCC2)ccc1Nc1ncnc(N2CCN(c3ncc(Cc4ccccc4)c(N)n3)CC2)n1 [Compound 228] | 0.1 to 1 µM | 0.00101 to 0.01 µM |
| C[C@](N)(c1ccc(F)cc1)c1cnc(N2CCN(c3ncnc(Nc4ccc([C@@H](O)CO)cc4)n3)CC2)nc1 [Compound 195] | < 0.01 µM | < 0.001 µM |
| Cc1c(Nc2ncnc(N3CCN(c4ncc(Cc5ccccc5)cn4)[C@H](C)C3)n2)cnn1C[C@@H]1CNCCO1 [Compound 242] | 0.01 to 0.1 µM | < 0.001 µM |
| c1ccc(OCc2cnc(N3CCN(c4ncnc(Nc5cnn(C[C@@H]6CNCCO6)c5)n4)CC3)nc2)cc1 [Compound 190] | 0.01 to 0.1 µM | 0.00101 to 0.01 µM |
| Nc1nc(N2CCN(c3ncnc(Nc4cnc5c(c4)CNCC5)n3)CC2)ncc1Cc1ccccc1 [Compound 78] | 0.01 to 0.1 µM | < 0.001 µM |
| c1cnc(N2CCN(c3ncnc(Nc4cnn(C[C@@H]5CNCCO5)c4)n3)CC2)nc1 [Compound 6] | > 10 µM | > 0.1 µM |

Further lines, results first:

| IC50 [1] | IC50 [2] | SMILES |
| --- | --- | --- |
| 0.01 to 0.1 µM | < 0.001 µM | Cc1c(Nc2ncnc(N3CCN(c4ncc(Sc5ccccc5F)cn4)CC3)n2)cnn1CC(C)(C)O [Compound 210] |
| 0.01 to 0.1 µM | 0.00101 to 0.01 µM | Fc1ccc(Cc2cnc(N3CCN(c4ncnc(Nc5ccc6c(c5)CNCC6)n4)CC3)nc2)cc1F [Compound 139] |
| 0.01 to 0.1 µM | 0.00101 to 0.01 µM | O[C@@H]1CCN(c2ccc(Nc3ncnc(N4CCN(c5ncc(Cc6ccccc6)cn5)CC4)n3)cc2)C1 [Compound 111] |
| 0.01 to 0.1 µM | 0.00101 to 0.01 µM | Cc1c(Nc2ncnc(N3CCN(c4ncc(Sc5ccccc5F)cn4)CC3)n2)cnn1C[C@H](C)O [Compound 154] |
| 0.01 to 0.1 µM | < 0.001 µM | O[C@@H]1CCN(c2ccc(Nc3ncnc(N4CCN(c5ncc(Cc6ccccc6)cn5)CC4)n3)cc2)C[C@@H]1O [Compound 232] |
| 0.01 to 0.1 µM | < 0.001 µM | OCC(O)c1ccc(Nc2ncnc(N3CCN(c4ncc(Cc5ccccc5)cn4)CC3)n2)cc1 (centres unmarked) [Compound 55] |
| 0.01 to 0.1 µM | 0.00101 to 0.01 µM | CC(C)(O)Cn1cc(Nc2ncnc(N3CCN(c4ncc(Sc5ccccc5F)cn4)CC3)n2)cn1 [Compound 150] |
| 0.01 to 0.1 µM | < 0.001 µM | C[C@H](c1ccccc1)c1cnc(N2CCN(c3ncnc(Nc4cnn(C[C@@H]5CNCCO5)c4)n3)CC2)nc1 [Compound 186, N-(1-((S)-morpholin-2-ylmethyl)-1H-pyrazol-4-yl)-4-(4-(5-((R)-1-phenylethyl)pyrimidin-2-yl)piperazin-1-yl)-1,3,5-triazin-2-amine] |
| 0.01 to 0.1 µM | 0.00101 to 0.01 µM | Cc1c(Nc2ncnc(N3CCN(c4ncc([C@@](C)(O)c5ccc(F)cc5)cn4)CC3)n2)cnn1C[C@@H]1CNCCO1 [Compound 276] |
| 0.01 to 0.1 µM | < 0.001 µM | c1ccc(Cc2cnc(N3CCN(c4ncnc(Nc5cnn(C[C@H]6COCCO6)c5)n4)CC3)nc2)cc1 [Compound 133] |
| 0.01 to 0.1 µM | 0.00101 to 0.01 µM | Cc1c(Nc2ncnc(N3CCN(c4ncc(Sc5ccc(F)cc5)cn4)CC3)n2)cnn1C[C@@H]1CNCCO1 [Compound 273] |
| 0.1 to 1 µM | 0.00101 to 0.01 µM | c1ccc(Cc2cnc(N3CCN(c4ncnc(Nc5cnn(C[C@@H]6COCCN6)c5)n4)CC3)nc2)cc1 [Compound 126] |
| 1 to 10 µM | 0.00101 to 0.01 µM | Brc1cnc(N2CCN(c3ncnc(Nc4cnn(C[C@@H]5CNCCO5)c4)n3)CC2)nc1 [Compound 91] |
| 0.01 to 0.1 µM | 0.00101 to 0.01 µM | c1cncc(Cc2cnc(N3CCN(c4ncnc(Nc5ccc6c(c5)CNCC6)n4)CC3)nc2)c1 [Compound 45] |
| 0.01 to 0.1 µM | < 0.001 µM | Cn1cc(Nc2ncnc(N3CCN(c4ncc([C@@](C)(O)c5ccc(F)cc5)cn4)CC3)n2)cn1 (single isomer, unassigned) [Compound 38] |
| 0.01 to 0.1 µM | 0.00101 to 0.01 µM | Cc1c(Nc2ncnc(N3CCN(c4ncc(C(C)c5ccccc5)cn4)CC3)n2)cnn1C[C@@H]1CNCCO1 (some centres unmarked) [Compound 243] |
| 0.01 to 0.1 µM | < 0.001 µM | C[C@@H](O)CNc1ccc(Nc2ncnc(N3CCN(c4ncc(Cc5ccccc5)cn4)CC3)n2)cc1 [Compound 82] |
| 0.01 to 0.1 µM | 0.00101 to 0.01 µM | Cc1c(Nc2ncnc(N3CCN(c4ncc(Cc5ccccc5)cn4)CC3)n2)cnn1C[C@@H]1CNCCO1 [Compound 185] |
| 0.01 to 0.1 µM | < 0.001 µM | CC(C)(c1ccccc1)c1cnc(N2CCN(c3ncnc(Nc4ccc([C@@H](O)CO)cc4)n3)CC2)nc1 [Compound 120] |
| 0.1 to 1 µM | 0.00101 to 0.01 µM | Fc1ccc(Nc2cnc(N3CCN(c4ncnc(Nc5cnn(C[C@@H]6CNCCO6)c5)n4)CC3)nc2)cc1 [Compound 200] |
| 0.01 to 0.1 µM | 0.00101 to 0.01 µM | Fc1ccc(OCc2cnc(N3CCN(c4ncnc(Nc5cnn(C[C@@H]6CNCCO6)c5)n4)CC3)nc2)cc1 [Compound 253] |
| < 0.01 µM | < 0.001 µM | C[C@](O)(c1ccccc1)c1cnc(N2CCN(c3ncnc(Nc4ccc(N5CCOCC5)cc4)n3)CC2)nc1 [Compound 235] |
| 0.1 to 1 µM | 0.00101 to 0.01 µM | Fc1cccc(F)c1Cc1cnc(N2CCN(c3ncnc(Nc4ccc5c(c4)CNCC5)n3)CC2)nc1 [Compound 136] |
| 0.01 to 0.1 µM | 0.00101 to 0.01 µM | C[C@@](O)(c1ccccc1)c1cnc(N2CCN(c3ncnc(Nc4ccc(N5CCOCC5)cc4)n3)CC2)nc1 [Compound 234] |
| > 10 µM | 0.01 to 0.1 µM | c1nc(Nc2cnn(CC3CNCCO3)c2)nc(N2CCN(c3ncc(C4CC4)cn3)CC2)n1 (centres unmarked) [Compound 19] |
| 0.01 to 0.1 µM | 0.00101 to 0.01 µM | CCN1CCO[C@H](Cn2cc(Nc3ncnc(N4CCN(c5ncc(Cc6ccccc6)cn5)CC4)n3)cn2)C1 [Compound 241] |
| 0.01 to 0.1 µM | < 0.001 µM | CC(C)(O)[C@H](O)c1ccc(Nc2ncnc(N3CCN(c4ncc(Cc5ccccc5)cn4)CC3)n2)cc1 [Compound 121] |
